{"source": "patent US9597359B2", "about": "“Production of dentin, cementum and enamel by cells” (The Trustees of Columbia University in the City of New York, priority 2010, dated 2017)", "key": {"[1]": {"test_system": "Human PDL cells", "assay": "von Kossa staining of human PDL cells treated with amelogenin, BIO or Wnt3A", "assay_type": "cell-based", "conditions": "2 weeks; amelogenin 5 μg/ml, BIO 1 μg/ml, Wnt3A 50 ng/ml", "experimental": "The human PDL cells were treated with amelogenin, BIO, or Wnt3A as indicated for 2 weeks."}, "[2]": {"test_system": "Wnt signaling reporter (TOPGAL osteoblasts)", "assay": "LacZ activity in primary osteoblasts from TOPGAL mice", "assay_type": "cell-based", "conditions": "48 hours after treatment", "experimental": "(§1) PDL cells were treated with amelogenin for 16 hours. The active beta catenin level were determined by western blotting (see e.g., FIG. 18A). […] Wnt signaling reporter TOPFLASH was transfected into PDL cells and then the cells were treated with amelogenin. The luciferase activity was measured 48 hours after treatment (see e.g., FIG. 18C). The primary osteoblasts were isolated from Wnt signaling reporter mice, TOPGAL. 48 hours after treatment, the LacZ activity was measured (see e.g., FIG. 18D). Fibrin gel containing 50 μg/ml was implanted subcutaneously into the TOPGAL mice. 1 week post-implantation, the gel was harvested. LacZ staining was performed. […] Recombinant amelogenin is 6×His tagged. The distribution of amelogenin is shown overlapped with the beta catenin signaling as indicated by the LacZ staining (see e.g., FIG. 18F)."}, "[3]": {"test_system": "Mesenchymal stem cell C3H10t1/2 cells", "assay": "RT-PCR marker expression in C3H10t1/2 cells in osteogenic medium", "assay_type": "cell-based", "conditions": "C3H10t1/2, osteogenic medium", "from_the_text": "(§2) At 3 weeks, amelogenin-treated cells were positive for both ALP and Van Kossa (see e.g., FIG. 15A-B). […] However, the cells tested negative for DSPP."}, "[4]": {"test_system": "Human PDL cells", "assay": "trichrome staining of collagen matrix in human PDL cells", "assay_type": "cell-based", "conditions": "50 μg/ml ascorbic acid, 2 weeks post-treatment", "experimental": "(§3) Human PDL cells were seeded in the 6 well plate and cultured in presence of 50 μg/ml ascorbic acid. The cells were treated with amelogenin. […] The total RNA was extracted and the expression of type I collagen was determined by Real Time PCR (see e.g., FIG. 17B). […] PDL cells were treated with amelogenin in the chemically-defined osteogenic media (see FIG. 17C)."}, "[5]": {"test_system": "PDL cells", "assay": "Alkaline phosphatase and von Kossa staining of PDL cells in osteogenic media", "assay_type": "cell-based, human", "conditions": "chemically-defined osteogenic media", "experimental": "as §3"}, "[6]": {"test_system": "non-phosphorylated beta-catenin", "assay": "non-phosphorylated beta-catenin western blotting, dental pulp cells", "assay_type": "cell-based, human", "conditions": "anti-active beta catenin antibody", "experimental": "(§4) The dental pulp cells were treated with recombinant amelogenin overnight. The translocation of beta catenin was determined by immunofluorescence staining (see e.g., FIG. 8A-F). Briefly, the cells were fixed with formalin for 5 min and treated with PBS with 0.1% triton for 5 min. The cells were then incubated with anti-beta catenin antibody overnight, after washing with PBS with 0.5% Tween-20, then incubated with secondary antibody labeled with fluorescence dye. […] The PDL cells treated with amelogenin were lysed with PBS lysis buffer containing 1% NP-40 and protease inhibitor, phosphatase inhibitor cocktails. The non-phosphorylated beta-catenin levels were determined by western blotting using anti-active beta catenin antibody (anti-ABC, millipore) (see e.g., FIG. 8G)."}, "[7]": {"test_system": "Wnt signaling reporter TOPFLASH", "assay": "Wnt signaling reporter TOPFLASH luciferase activity in PDL cells", "assay_type": "cell-based, human", "conditions": "48 hours after treatment", "experimental": "as §1"}, "[8]": {"test_system": "Human PDL cells", "assay": "type I collagen expression by Real Time PCR in human PDL cells", "assay_type": "cell-based", "conditions": "2 weeks post-treatment", "experimental": "as §3"}, "[9]": {"test_system": "beta catenin signaling", "assay": "fibrin gel implanted subcutaneously into TOPGAL mice, LacZ staining", "assay_type": "in vivo", "conditions": "fibrin gel containing 50 μg/ml, subcutaneous, 1 week post-implantation", "experimental": "as §1"}, "[10]": {"test_system": "PDL cells", "assay": "differentiation markers by Real Time PCR in PDL cells in osteogenic media", "assay_type": "cell-based, human", "conditions": "chemically-defined osteogenic media", "experimental": "as §3"}, "[11]": {"test_system": "Mesenchymal stem cell C3H10t1/2 cells", "assay": "ALP and Van Kossa staining of C3H10t1/2 cells in osteogenic medium", "assay_type": "cell-based", "conditions": "C3H10t1/2, osteogenic medium", "experimental": "Mesenchymal stem cell C3H10t1/2 cells were cultured in osteogenic medium for 2 weeks (see e.g., FIG. 14A).\nas §2"}, "[12]": {"test_system": "dental pulp stem cells or periodontal ligament stem cells", "assay": "osteogenic and odontogenic differentiation of dental pulp and periodontal ligament stem cells", "assay_type": "cell-based, human", "conditions": "culture with amelogenin (e.g., recombinant)", "experimental": "Exfoliating deciduous incisors and permanent third molars of multiple donors were collected. Dental pulp (DP) and periodontal ligament (PDL) stem cells were isolated and enzyme-digested per known methods (Yang et al., 2010, Clones of ectopic stem cells in the regeneration of muscle defects in vivo. PloS One. 2010 Oct. 20; 5 (10)). Mononucleated and adherent cells were cultured in DMEM-LG medium containing 10% FBS and 1% antibiotics in 10 cm cell culture dishes. These isolated cells contain single clones of multipotent stem cells that readily express sternness markers such as Stro-1, Oct4, Nanog, and CD146. DSCs and PDL cells were expanded and subjected to osteogenic and odontogenic differentiation. Briefly, DP and PDL stem cells were cultured in DMEM-LG medium containing 10% FBS, 50 μg/ml ascorbic acid and 1 mM 2-glycerophosphate in the presence or absence of recombinant amelogenin. The osteoaenic and odontoaenic differentiation was determined by the expression of RUNX2, dentin sialophosphoprotein (DSPP) and Dentin Matrix Protein 1 (DMP-1) by Real Time PCR, as well as Von Kossa and alkaline phosphatase staining. The level of active […] was measured by immune-fluorescence staining and western blotting."}, "[13]": {"test_system": "Dental pulp stem cells (DPSCs)", "assay": "marker gene expression by RT-PCR in dental pulp stem cells in osteogenic medium", "assay_type": "cell-based, human", "conditions": "3 weeks", "experimental": "Dental pulp stem cells (DPSCs) were cultured in osteogenic medium for 3 weeks (see e.g., FIG. 13A-B). The osteogenic differentiation was determined by ALP and Van Kossa staining (see e.g., FIG. 13B). The expression of marker genes, RunX2 and DSPP, were determined by RT-PCR (see e.g., FIG. 13C)."}, "[14]": {"test_system": "dental pulp cells", "assay": "DSP immunostaining of dental pulp cells", "assay_type": "cell-based, human", "conditions": "amelogenin group", "from_the_text": "Immunostaining verified DSP-positive cells in the amelogenin group (see e.g., FIG. 27A-B″)."}, "[15]": {"test_system": "DSCs", "assay": "cell proliferation by cell number count", "assay_type": "cell-based", "conditions": "3000 cells seeded, counted every 2 days", "experimental": "3000 cells were seeded in the 12 well plate and the cell number was counted every 2 days (see e.g., FIG. 28A-B)."}, "[16]": {"test_system": "beta catenin", "assay": "beta catenin translocation by immunofluorescence staining in dental pulp cells", "assay_type": "cell-based, human", "conditions": "dental pulp cells treated with recombinant amelogenin overnight", "experimental": "as §4"}, "[17]": {"test_system": "Human PDL cells", "assay": "Von Kossa staining of human PDL cells transfected with ICAT plasmid", "assay_type": "cell-based", "conditions": "osteogenic media, 2 weeks", "experimental": "Human PDL cells were transfected with the Wnt signaling inhibitor, ICAT plasmid. The cells were treated with amelogenin in the osteogenic media for 2 weeks."}, "[18]": {"test_system": "active beta catenin", "assay": "active beta catenin western blotting, PDL cells", "assay_type": "cell-based, human", "conditions": "PDL cells treated for 16 hours", "experimental": "as §1"}, "[19]": {"test_system": "PDL cells", "assay": "cell count of PDL cells", "assay_type": "cell-based, human", "conditions": "counted at 0, 2 and 4 days", "experimental": "PDL cells and dental pulp cells (DPSC) were seeded in 12 well plate with the cells number indicated. The cell treated with amelogenin and cell number were counted at 0, 2, and 4 days (see e.g., FIG. 9A-B)."}, "[20]": {"test_system": "beta catenin", "assay": "beta catenin translocation by immunofluorescence staining in PDL cells", "assay_type": "cell-based, human", "experimental": "The PDL cells were treated with recombinant amelogenin overnight. The translocation of beta catenin was determined by immunofluorescence staining (see e.g., FIG. 7A-F). Briefly, the cells were fixed with formalin for 5 min and treated with PBS with 0.1% triton for 5 min. The cells were then incubated with anti-beta catenin antibody overnight, after washing with PBS with 0.5% Tween-20, then incubated with secondary antibody labeled with fluorescence dye. […] Meanwhile, the PDL cells treated with amelogenin were lysed with PBS lysis buffer containing 1% NP-40 and protease inhibitor, phosphotase inhibitor cocktails. The non-phosphorylated beta catenin levels were determined by western blotting using anti-active beta catenin antibody (anti-ABC, millipore) (see e.g., FIG. 7G).\nPDL cells were treated with amelogenin for 16 hours. The active beta catenin level were determined by western blotting (see e.g., FIG. 18A). […] Wnt signaling reporter TOPFLASH was transfected into PDL cells and then the cells were treated with amelogenin. The luciferase activity was measured 48 hours after treatment (see e.g., FIG. 18C). The primary osteoblasts were isolated from Wnt signaling reporter mice, TOPGAL. 48 hours after treatment, the LacZ activity was measured (see e.g., FIG. 18D). Fibrin gel containing 50 μg/ml was implanted subcutaneously into the TOPGAL mice. 1 week post-implantation, the gel was harvested. […]"}}}
{"molecule": "O=C1Nc2cc(Br)ccc2/C1=C1/Nc2ccccc2/C1=N\\O", "note": "[BIO, reference compound]", "values": [{"measurement": "cell differentiation (von Kossa staining)", "setting": "[1]", "result": "cell differentiation"}]}
{"molecule": "amelogenin", "values": [{"measurement": "LacZ activity", "setting": "[2]", "result": "increased"}, {"measurement": "DSPP", "setting": "[3]; 3 weeks", "result": "negative"}, {"measurement": "RunX2 expression", "setting": "[3]; RT-PCR", "result": "induced"}, {"measurement": "collagen matrix synthesis (trichrome staining)", "setting": "[4]", "result": "promote the PDL cells matrix synthesis"}, {"measurement": "cell differentiation (Alkaline phosphatase and von Kossa staining)", "setting": "[5]", "result": "cell differentiation was confirmed"}, {"measurement": "non-phosphorylated beta-catenin levels", "setting": "[6]", "result": "increased"}, {"measurement": "Wnt activity (TOPFLASH luciferase activity)", "setting": "[7]", "result": "increased"}, {"measurement": "type I collagen mRNA", "setting": "[8]", "result": "upregulate"}, {"measurement": "LacZ staining around implanted gel", "setting": "[9]", "result": "LacZ positive cells were found in the surrounding area of the gel"}, {"measurement": "differentiation markers (Real Time PCR)", "setting": "[10]", "result": "upregulation"}, {"measurement": "ALP staining", "setting": "[11]; 2 weeks", "result": "positive"}, {"measurement": "Van Kossa staining", "setting": "[11]; 2 weeks", "result": "negative"}, {"measurement": "ALP staining", "setting": "[11]; 3 weeks", "result": "positive"}, {"measurement": "Van Kossa staining", "setting": "[11]; 3 weeks", "result": "positive"}, {"measurement": "ALP and Van Kossa staining", "setting": "[12]", "result": "increased"}, {"measurement": "DSPP expression", "setting": "[12]", "result": "increased"}, {"measurement": "DSPP expression", "setting": "[13]", "result": "DSPP-positive"}, {"measurement": "DSP immunostaining", "setting": "[14]", "result": "DSP-positive"}, {"measurement": "cell differentiation (von Kossa staining)", "setting": "[1]", "result": "cell differentiation"}, {"measurement": "cell proliferation (cell number)", "setting": "[15]", "result": "more rapid proliferation"}, {"measurement": "translocation of beta catenin", "setting": "[16]", "result": "beta catenin translocalized into nucleus"}, {"measurement": "cell differentiation (Von Kossa staining)", "setting": "[17]", "result": "demonstrated cell differentiation"}, {"measurement": "active beta catenin level", "setting": "[18]", "result": "exhibited active beta-catenin levels"}, {"measurement": "cell counts", "setting": "[19]", "result": "temporal increase in cell counts"}, {"measurement": "nuclear translocalization of beta catenin", "setting": "[20]; PDL cells treated for 16 hours", "result": "nuclear translocalization"}, {"measurement": "translocation of beta catenin", "setting": "[20]; PDL cells treated with recombinant amelogenin overnight", "result": "beta catenin translocalized into nucleus"}]}
{"molecule": "Wnt3A: Wnt3A used at 50 ng/ml on human PDL cells as comparator (protein, UniProt P56704 19-352, looked up) Protein Wnt-3a: SYPIWWSLAVGPQYSSLGSQPILCASIPGLVPKQLRFCRNYVEIMPSVAEGIKIGIQECQHQFRGRRWNCTTVHDSLAIFGPVLDKATRESAFVHAIASAGVAFAVTRSCAEGTAAICGCSSRHQGSPGKGWKWGGCSEDIEFGGMVSREFADARENRPDARSAMNRHNNEAGRQAIASHMHLKCKCHGLSGSCEVKTCWWSQPDFRAIGDFLKDKYDSASEMVVEKHRESRGWVETLRPRYTYFKVPTERDLVYYEASPNFCEPNPETGSFGTRDRTCNVSSHGIDGCDLLCCGRGHNARAERRREKCRCVFHWCCYVSCQECTRVYDVHTCK", "values": [{"measurement": "cell differentiation (von Kossa staining)", "setting": "[1]", "result": "cell differentiation"}]}
